Assay results taken from patent US12472201B2, “Complexing agent salt formulations of pharmaceutical compounds” (Bexson Biomedical, Inc., priority 2020, dated 2025).
Where “and” joins values, the source holds several entries; their conditions need not be identical. Equal values may be shown once. Where a name gives a salt, the structure may show the parent alone. Marks after values point to notes of the source that are not given here.

Experiments:
[1] = Forced precipitation of racemic ketamine with 2M NaOH; type: physicochemical; details: 70 mg/mL ketamine FB equiv., 2 mL volume, 2M NaOH after pH 5.5 in 1-2 μL volumes
Description: The tests were conducted on a 2 mL volume. Base was added in 1-2 μL volumes.

[2] = Osmolality of ketamine HCl and ketamine-Captisol complexes; type: physicochemical; details: for Mean Osmolality: each sample run in triplicate
Description: Osmolality. Osmolality readings were obtained on an Advanced Instruments Advanced™ Micro Osmometer Model 3300 (Advanced Instruments, Inc. Norwood, MA, USA). Saline solutions (0.9% and 3%) were freshly prepared with sodium chloride (Fisher Scientific, Fair Lawn, NJ) and run as positive controls. Each sample was calculated as the mean from back-to-back triplicate measurements.

[3] = Forced precipitation of API HCl salt and API FB-CapAcid formulation with 2M NaOH; type: physicochemical; details: 70 mg/mL API in FB equivalents, 1 mL scale, 1 μL increments of 2M NaOH, starting pH 7.0±0.1
[4] = Final pH and average osmolality of API Captisol formulations and API salt solutions
[5] = Theoretical vs measured osmolarities of API-Cap formulations; type: physicochemical; details: API-Cap Formulations at 70 mg/mL freebase equivalents; for Percentage of Theoretical: measured osmolality vs calculated osmolarity
physchem = details: water, thermodynamic from solid
[6] = Solubility of DMT, 5-MeO-DMT and Mescaline in Captisol sodium solution; type: physicochemical; details: equimolar Captisol Sodium form in water; for Appearance after filtration / Osmolality / pH: agitated overnight; for Amine Conc.: total 10 g, agitated at room temperature overnight, after filtration
Description: An equimolar amount of Captisol Sodium form and 5 mL HPLC grade water were added to three 20 mL vials equipped with stir bars. Once a solution was formed, 638 mg of DMT, 700 mg of 5-MeO-DMT, and 700 mg of Mescaline were added to each vial. Each solution was diluted with water to a total solution weight of 10 g. The mixtures were agitated at room temperature overnight and analyzed.

[7] = API HCl salt (70 mg/mL in FB equiv)
[8] = CapAcid-API Freebase Formulation (70 mg/mL API FB, 1.1 molar equiv CapAcid)
[9] = Captisol-API HCl salt formulation (70 mg/mL API HCl salt in FB equiv, 1.1 molar equiv Captisol in CapAcid equiv)
[10] = Captisol salt formulation with nicotine Stoichiometric Fumarate salt, 70 mg/mL FB equiv
[11] = salt solution, nicotine Stoichiometric Fumarate salt, 70 mg/mL FB equiv
[12] = Captisol salt formulation with DXM HBr 15 mg/mL FB equiv
[13] = salt solution, DXM HBr 15 mg/mL FB equiv
[14] = salt solution, 5-IAI HCl 35 mg/mL FB equiv
[15] = Captisol salt formulation with Sumatriptan stoichiometric succinate salt, 70 mg/mL FB equiv
[16] = salt solution, Sumatriptan stoichiometric succinate salt, 70 mg/mL FB equiv

Row | Compound | Osmolality [4, 7] [mOsm/kg] | pH [4, 7] | Osmolality [4, 8] | pH [4, 8] | Osmolality [4, 9] | Measured Osmolality [5] [mOsmol/L] | pH [4, 9] | also measured
1 | CNC1(c2ccccc2Cl)CCCCC1=O (racemic) [Ketamine HCl] |  |  |  |  |  |  |  | Mean Volume Base to precip ± SEM [1]: 4 ± 0 µL; Mean Osmolality ([2]; 75 mg/mL): 533.3 mOsm; Mean Osmolality ([2]; 100 mg/mL): 703.0 mOsm; Average osmolality ± SEM ([2]; [Ketamine] 70 mg/mL FB equiv., HCl): 527 ± 2.69 mOsm/kg and 527.0 ± 2.7 mOsm/kg; Average osmolality ± SEM ([2]; [Ketamine] 96 mg/mL FB equiv., HCl): 704.4 ± 9.95 mOsm/kg and 704.4 ± 9.9 mOsm/kg; Average osmolality ± SEM ([2]; [Ketamine] 100 mg/mL FB equiv.): 736.83 ± 3.7 mOsm/kg
2 | CNC(C)Cc1ccc2occc2c1.Cl (stereo not shown) [5-MAPB HCl] |  |  |  |  |  |  |  | Volume of Base need for Precipitation [3]: 47* μL
3 | CNC1(c2ccccc2F)CCCCC1=O (stereo not shown) [Example 2-F-DCK, 2-(2-fluorophenyl)-2-(methylamino)cyclohexan-1-one] | 560 | 4.27 | 373 mOsm/kg | 6.97 | 1,046 mOsm/kg | 373 |  | Percentage of Theoretical [5]: 100.9%
4 | CCN(CC)CC(=O)Nc1c(C)cccc1C [Lidocaine, reference compound] | 543 | 4.60 | 304 mOsm/kg | 6.99 | 844 mOsm/kg | 304 | 6.95 | Percentage of Theoretical [5]: 87.0%
5 | COc1ccc2c(c1)[C@]13CCCC[C@@H]1[C@H](C2)N(C)CC3 [DXM HBr hydrate, dextromethorphan HBr hydrate] |  |  |  |  |  |  |  | solubility at 48 h (physchem): 16.4 mg/mL
6 | CNC(C)Cc1cccc(F)c1.Cl (stereo not shown) [3-FMA HCl] |  |  |  |  |  |  |  | Volume of Base need for Precipitation [3]: 37 µL
7 | CN1CCC[C@H]1c1cccnc1 [Nicotine, S-(−)-nicotine, reference compound] |  |  | 555* mOsm/kg | 7.02* |  | 555 |  | Osmolality [4, 10]: 2,006 mOsm/kg; pH [4, 10]: 6.97; Osmolality [4, 11]: 682 mOsm/kg; pH [4, 11]: 3.80; Percentage of Theoretical [5]: 110.1%
8 | Cc1cccc(C(=O)C(C)N(C)C)c1 (stereo not shown) [Me-3-MMC, 2-(dimethylamino)-1-(m-tolyl)propan-1-one] | 578 | 4.44 | 321 mOsm/kg | 6.95 | 1,151 mOsm/kg | 321 | 7.00 | 
9 | Cc1cccc(C(=O)C(C)N(C)C)c1.Cl (stereo not shown) [Me-3-MMC HCl, Me-3-MMC hydrochloride] |  |  |  |  |  |  |  | Volume of Base need for Precipitation [3]: 6.5* μL
10 | CN1CC[C@]23c4c5ccc(O)c4O[C@H]2[C@@H](O)C=C[C@H]3[C@H]1C5 [Morphine, reference compound] |  |  | 166 mOsm/kg | 6.09 |  | 166 |  | Percentage of Theoretical [5]: 57.9%
11 | CNC1(c2ccccc2Cl)CCCCC1=O (stereo not shown) [Ketamine] |  |  |  |  |  | 291 |  | Percentage of Theoretical [5]: 84.6%
12 | CN(C)CCc1c[nH]c2ccccc12 [DMT, N,N-Dimethyltryptamine] |  |  |  |  |  |  |  | Appearance after filtration [6]: Clear/colorless; Osmolality [6]: 300 mOsm/kg; pH [6]: 11.10; Amine Conc. [6]: 13.6 mg/mi
13 | CNC(C)Cc1ccc2occc2c1 (stereo not shown) [Example 5-MAPB, 1-(benzofuran-5-yl)-N-methylpropan-2-amine] | 556 | 3.16 | 215 mOsm/kg | 7.10 | 1,004 mOsm/kg | 215 | 7.15 | 
14 | COc1ccc2c(c1)[C@]13CCCC[C@@H]1[C@H](C2)N(C)CC3 [DXM, dextromethorphan, reference compound] |  |  | 113 mOsm/kg | 6.95 |  | 113 |  | Osmolality [4, 12]: 145* mOsm/kg; pH [4, 12]: 7.05; Osmolality [4, 13]: 91 mOsm/kg; pH [4, 13]: 5.47
15 | CNC1(c2ccccc2)CCCCC1=O (stereo not shown) [DCK, 2-(methylamino)-2-phenylcyclohexan-1-one] | 601 | 4.73 | 310 mOsm/kg | 7.00 | 1,086 mOsm/kg | 310 | 6.98 | Percentage of Theoretical [5]: 77.1%
16 | CNC(C)Cc1cccc(F)c1 (stereo not shown) [Example 3-FMA, 1-(3-fluorophenyl)-N-methylpropan-2-amine] | 706 | 5.17 | 337 mOsm/kg | 6.78 | 1,388 mOsm/kg | 337 | 7.01 | 
17 | CCN(CC)CC(=O)Nc1c(C)cccc1C [Lidocaine HCl, reference compound] |  |  |  |  |  |  |  | Volume of Base need for Precipitation [3]: 5 µL
18 | CNC(C)C(=O)c1cccc(C)c1 (stereo not shown) [Example 3-MMC, 2-(methylamino)-1-(m-tolyl)propan-1-one] | 636 | 4.76 | 312 mOsm/kg | 6.99 | 1,190* mOsm/kg | 312 | 6.98 | 
19 | NC1Cc2ccc(I)cc2C1 (stereo not shown) [Example 5-IAI, 5-iodo-2,3-dihydro-JH-inden-2-amine] |  |  | 119 mOsm/kg | 6.97 | 621 mOsm/kg | 119 | 6.98 | Osmolality [4, 14]: 221 mOsm/kg; pH [4, 14]: 4.62
20 | COc1cc(CCN)cc(OC)c1OC [Mescaline] |  |  |  |  |  |  |  | Appearance after filtration [6]: Clear/light yellow; Osmolality [6]: 570 mOsm/kg; pH [6]: 11.69; Amine Conc. [6]: 77.7 mg/mi
21 | CNS(=O)(=O)Cc1ccc2[nH]cc(CCN(C)C)c2c1 [Sumatriptan, 1-(3-(2-(dimethylamino)ethyl)-1H-indol-5-yl)-N-methylmethanesulfonamide, reference compound] |  |  | 109 mOsm/kg | 7.06 |  | 109 |  | Osmolality [4, 15]: 858 mOsm/kg; pH [4, 15]: 6.99; Osmolality [4, 16]: 293 mOsm/kg; pH [4, 16]: 4.57
22 | COc1ccc2[nH]cc(CCN(C)C)c2c1 [Example 5-MeO-DMT, 5-methoxy-N,N-dimethyltryptamine] |  |  |  |  |  |  |  | Appearance after filtration [6]: Clear/faint yellow; Osmolality [6]: 316 mOsm/kg; pH [6]: 11.03; Amine Conc. [6]: 14.6 mg/mi
